Data taken from US20110009616A1, “AGENT FOR PREVENTING ARTERIOSCLEROSIS” (priority 2006, published 2011).
Read-outs that look alike come from different tables or passages of the source.

How the values were obtained:
hLOX-1 = target: T1, hLOX-1 (Homo sapiens, UniProt P78380); experiment: Fluorescently labeled oxidized LDL uptake into CHO cells expressing hLOX-1, tetracycline induction (Example 6); type: cell-based; conditions: FIG. 5; control = 100%; compared with anti-hLOX antibody
T1 construct: expressed in transfected cells; host or cells: CHO-K1 Tet-On cell line (Clontech), pTRE-hLOX1 (B), doxycycline induction
Procedure: As for the same compounds as in Example 5, using Chinese hamster ovary (CHO) cells stably expressing bLOX-1, an ability to suppress fluorescently labeled oxidized LDL uptake into the CHO cells through the bLOX-1 was evaluated. Furthermore, as for the hLOX-1, in the CHO cells using an induction system of tetracycline gene expression, an ability to suppress fluorescently labeled oxidized LDL uptake through the hLOX-1 was evaluated.
As the CHO cells which express the hLOX-1 depending on tetracycline concentrations, the cells transfected with the plasmid described below in a known method were used. The transfected plasmid has a system where a hLOX-1 coding region integrated in pcDNA3.1-hLOX1-V5 (Journal of Molecular and Cellular Cardiology 39 (3) 553-561 (2005)) is mounted in a tetracycline response vector and the expression of hLOX-1 can be controlled depending on the concentration of tetracycline or doxycycline.
An assay using the CHO cells was carried out in the following manner. […] Then, the oxidized LDL labeled with 1,1′-dioctadecyl-3,3,3′,3′-tetramethylindocarbocyanine perchlorate (DiI, manufactured by Invitrogen), a carbocyanine fluorescence pigment, was applied to each well so as to be 5 μg/mL, and, under the environment described above, the uptake of the fluorescently labeled oxidized LDL was performed into the CHO cells for 4 hours. […]

[1] = test system: normal bovine aortic endothelial cell (BAEC); experiment: DiI-OxLDL uptake into normal bovine aortic endothelial cells (Example 7); type: cell-based; conditions: FIG. 6
SR-AII = target: T2, SR-AII (Homo sapiens, UniProt P21757); experiment: DiI-OxLDL uptake into cells expressing SR-AII (Example 7); type: cell-based; conditions: FIG. 6
T2 construct: expressed in transfected cells; host or cells: COS-1 cells (transient, 48 h), pDEST26
T2 sequence (P21757 1-358 isoform P21757-2): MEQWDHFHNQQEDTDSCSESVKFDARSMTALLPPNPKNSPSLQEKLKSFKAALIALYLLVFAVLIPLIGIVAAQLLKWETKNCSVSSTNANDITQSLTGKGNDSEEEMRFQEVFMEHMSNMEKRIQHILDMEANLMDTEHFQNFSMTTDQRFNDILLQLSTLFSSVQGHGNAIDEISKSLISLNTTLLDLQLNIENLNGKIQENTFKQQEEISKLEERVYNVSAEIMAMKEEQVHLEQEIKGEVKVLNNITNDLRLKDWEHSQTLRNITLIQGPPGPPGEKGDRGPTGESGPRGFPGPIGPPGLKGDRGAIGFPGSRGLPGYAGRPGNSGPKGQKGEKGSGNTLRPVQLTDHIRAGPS
Procedure: As for cDNA cloning of human SR-AII, the full-length sequence (1,077 base pairs) was obtained by PCR using cDNA derived from human normal lien (Invitrogen) as a template. Additionally a CACC sequence was added to 5′-terminal of the upstream primer. The amplified PCR product was inserted to a pENTR/D-TOPO vector (Invitrogen) and transformed into Mach1 cells (Invitrogen). From the obtained transformant, clones supposed to have the plasmid which was correctly inserted with the SR-AII full-length sequence were selected in usual ways such as a colony PCR method, and the plasmid sequence was sequenced. Furthermore, for the plasmid ascertained to have the correct sequence by sequencing, a site-specific recombination reaction to pDEST26 (Invitrogen) as an expression vector for animal cells was carried out according to a manual. The obtained pDEST26 vector having the full-length sequence of […] was transformed into COS-1 cells (Health Science Research Resources Bank), and cultivated for 48 hours to obtain a transient expressed cell line. […] Nystatin (manufactured by Wako) was used as a specific inhibitor of caveola transport.

[2] = human; Non-patent Document 15; cited from earlier work
[3] = rat; Non-patent Document 16; cited from earlier work
[4] = rats, intravenous injection; Non-patent Document 17; cited from earlier work

C=Cc1c(C)c2cc3nc(c4c5[nH]c(cc6nc(cc1[nH]2)C(C)=C6CC)c(C)c5C(=O)[C@@H]4C(=O)OC)[C@@H](CCC(=O)O)[C@@H]3C [pheophorbide a]
amount of oxidized LDL uptake into CHO cells expressing hLOX-1 (hLOX-1): stronger uptake inhibition on hLOX-1 than that of the anti-hLOX antibody
inhibitory activity on DiI-OxLDL uptake, compared with anti-LOX-1 antibody [1]: stronger than that of the anti-LOX-1 antibody
ability to suppress oxidized LDL uptake by SR-A (SR-AII): the ability to suppress the oxidized LDL uptake by SR-A
ingestion causing photosensitivity disease [2]: ≥ 500 mg/day
ingestion causing photosensitivity disease [3]: ≥ 220 mg/kg
accumulation to skin [4]: low
main accumulation target [4]: reticuloendothelial system
